Source: patent publication US10849840B2, “Compositions and methods for stimulation MAGP-1 to improve the appearance of skin” (New Avon LLC, priority 2010, dated 2020)

Tested on: MAGP-1
Test: MAGP-1 screening method: MAGP-1 mRNA (RT-qPCR, normalized to GAPDH) in treated normal human dermal fibroblasts
Assay type: cell-based
Conditions: 48 hours treatment
Method: Normal human dermal fibroblasts (Cascade Biologics) were cultured in 100 mm plates with 10 ml of DMEM with 10% serum and incubated for 24 hours at 37° C. and 10% CO2. After 24 hours, stock solutions of test compounds/plant extracts were made in appropriate solvents (e.g., DMSO). Cells were treated with test material or respective vehicle control diluted in growth medium for 48 hours in a humidified 37° C. incubator with 10% CO2. After incubation, growth medium from each plate was removed and 800 ul of TRIzol Reagent (Invitrogen) was added to the plates. Cell lysates were collected and placed in −80° C. freezer until RNA isolation and analysis.
RNA was isolated by following the manufacturer's procedures. Briefly, the cell lysates were brought to room temperature. 0.2 ml of chloroform per 1 ml of TRIzol® Reagent was added. The tubes were shaken vigorously for 15 seconds and incubated at ambient temperature for 2 to 3 minutes. The samples were centrifuged at 12,000×g for 15 minutes at 2 to 8° C. Following centrifugation; the mixture separated into multiple phases, and RNA remains exclusively in the upper aqueous phase.
The aqueous phase was then transferred to a fresh tube. The RNA was precipitated from the aqueous phase by mixing with 0.5 ml of isopropyl alcohol per 1 ml of TRIzol® Reagent was used for the initial homogenization. Samples were incubated at 15 to 30° C. for 10 minutes and centrifuged at 12,000×g for 10 minutes at 2 to 8° C. […] The sample was mixed by vortexing and centrifuged at 7,500×g for 5 minutes at 2 to 8° C. The RNA pellet was briefly air dried. RNA was dissolved in RNase-free water, and the concentration of total RNA was determined by using Nanodrop (Thermo Scientific, DE).
Reverse Transcription (RT) reactions were conducted in a total volume of 20 μl. The RT mixture was prepared to contain 2 μl 10× TaqMan RT buffer, 4.4 μl 25 mM MgCl2, 4.0 μl dNTP mix, 1.0 μl Random Hexamer, 0.4 μl RNase Inhibitor, 0.5 μl MultiScribe Reverse Transcriptase (50 U/ml), 2.0 μg of RNA, and RNase-free water to make up the final volume of 20 μl. […] After the RT step, the reactions were stored at −20° C. for qPCR analysis.
Quantitative Polymerase Chain Reaction (qPCR) was conducted in a total volume of 20 μl. Applied Biosystems (AB) Universal PCR master mix was used. The mixture was prepared to contain 10 μl of Taqman Universal PCR mix, 1 μl of primer and probe mix, 2 μl of RT product, and 7 μl of deionized water.
The temperature profiles for QPCR were 50° C. for 2 min, and 95° C. for 10 min for 1 cycle, then at 95° C. for 15 sec, and 60° C. for 1 min for 40 cycles. Values for MAGP-1 mRNA were collected along with those for the reference genes GAPDH.

Compound	Activity Level (percent increase in mRNA for MAGP-1 vs vehicle control) (concentration 0.001%)	Activity Level (percent increase in mRNA for MAGP-1 vs vehicle control) (concentration 0.01%)
O=C(O)CCSCCC(=O)O [Thiodipropionic acid (TDPA), Thiodipropionic acid]	++ (++: 41-60%)	
CC(C)CN(Cc1ccc(OS(C)(=O)=O)cc1)S(=O)(=O)c1ccccc1 [Compound of structure I, 4-((N-isobutylphenylsulfonamido)methyl)phenyl methanesulfonate]		++++ (++++: >80%)
lysine-threonine-phenylalanine-lysine [KTFK]	++++ (++++: >80%)	
Cc1cccc(Cc2nc3ccccc3n2CC(=O)N2CCOCC2)c1 [Compound of structure II, 2-{2-[(3-methylphenyl)methyl]-1H-1,3-benzodiazol-1-yl}1-(morpholin-4-yl)ethan-1-one]		++++ (++++: >80%)
